Reference: article PMC11415492 (Nature Communications, 2024)
Several values for one entry are separate records, joined by “and”; a condition that tells them apart may be missing. Equal entries are not always repeated. Structures can show the parent of a compound that is named as a salt. Where two headings read alike, the source gives them in different places.

Legend:
[1] = human
[2] = target: h5-HT2B (Homo sapiens, UniProt P41595); assay: IP1 functional assay, antagonist; assay type: cell-based; settings: read-out: % Inhibition of Control Agonist Response
[3] = target: hMOR (Homo sapiens, UniProt P35372); assay: cell-based
[4] = target: h5-HT2A (Homo sapiens, UniProt P28223); assay: IP1 functional assay, agonist; assay type: cell-based; settings: up to 10 µM
[5] = target: T1, rKOR (Rattus norvegicus, UniProt P34975); assay: Nanobody Nb33 sensor recruitment BRET assay; assay type: cell-based; settings: for response, Fig. S5c concentration-response point (replicates): Log [Drug]
T1 construct: signal peptide (N); expressed in transfected cells; host or cells: HEK-293T, transient (PEI)

[6] = system: adult human primary ventricular myocytes; assay: Cardiotoxicity (pro-arrhythmia) assay in adult human primary cardiomyocytes; assay type: cell-based; settings: for pro-arrhythmic potential: 0.1–10 µM
[7] = target: T2, hKOR (Homo sapiens, UniProt P41145); assay: KOR [35S]GTPγS agonist assay (commercial); assay type: biochemical; settings: agonist, n = 1
T2 construct: expressed in transfected cells; host or cells: HEK-293T, transient (PEI)

[8] = target: rat NMDA receptor; assay: rat NMDA radioligand displacement ([3H]MK-801); assay type: binding
[9] = target: T2, hKOR; assay: G protein activation BRET assay; assay type: cell-based; settings: for response, Fig. S5b concentration-response point (replicates): Log [Drug]
[10] = in vitro; settings: human, pH 7.4
[11] = 180 mg oral dose; cited from earlier work
[12] = target: T2, hKOR; assay: Nanobody Nb33 sensor recruitment BRET assay; assay type: cell-based
[13] = target: T3, hNOP (Homo sapiens, UniProt P41146); assay: human NOP (Orphanin ORL1) radioligand displacement; assay type: binding
T3 construct: purchased contracted research organization (eurofinsdiscoveryservices.com) item 260600

[14] = target: T4, hERG potassium channel (Homo sapiens, UniProt Q12809); settings: lit. value; cited from earlier work
T4 construct: purchased contracted research organization (eurofinsdiscoveryservices.com) item 4094

[15] = Noribogaine clinical dose escalation data (plasma concentration, QT); assay type: in vivo; settings: from reported clinical total plasma concentrations and own human plasma protein binding
[16] = system: male rats; assay: Food maintained (operant) responding; assay type: in vivo, rat; settings: 40 mg/kg i.p.
Description: For food maintained responding studies, food access was restricted such that rats were maintained at 90% of their normal body weight until responding stabilized, at which point rats were provided 12–15 g of rodent chow in addition to the food pellets earned during the experimental session.
Rats were lever trained as described in the general methods. Responding was maintained as described with notable difference in timeout (TO) period 6 min and sessions lasting 2 h or until a maximum of 20 pellets was delivered. […] Responding was considered stable when variation in the number of reinforcers for three consecutive sessions was less than 20%. For the group receiving oxa-noribogaine, data were analyzed using a two-way ANOVA with Šidák’s multiple comparisons test for post hoc comparison.

T1 sequence (P34975 whole entry): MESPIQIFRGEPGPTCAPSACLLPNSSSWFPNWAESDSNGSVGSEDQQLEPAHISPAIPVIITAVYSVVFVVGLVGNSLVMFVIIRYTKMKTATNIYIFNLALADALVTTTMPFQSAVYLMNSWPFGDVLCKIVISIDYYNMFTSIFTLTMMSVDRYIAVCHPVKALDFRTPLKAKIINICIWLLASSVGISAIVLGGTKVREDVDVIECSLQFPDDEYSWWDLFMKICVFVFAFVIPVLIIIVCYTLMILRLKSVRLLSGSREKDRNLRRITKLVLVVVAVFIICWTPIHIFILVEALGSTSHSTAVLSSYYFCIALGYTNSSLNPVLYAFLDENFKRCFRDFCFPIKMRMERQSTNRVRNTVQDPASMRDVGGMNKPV
T2 sequence (P41145 whole entry): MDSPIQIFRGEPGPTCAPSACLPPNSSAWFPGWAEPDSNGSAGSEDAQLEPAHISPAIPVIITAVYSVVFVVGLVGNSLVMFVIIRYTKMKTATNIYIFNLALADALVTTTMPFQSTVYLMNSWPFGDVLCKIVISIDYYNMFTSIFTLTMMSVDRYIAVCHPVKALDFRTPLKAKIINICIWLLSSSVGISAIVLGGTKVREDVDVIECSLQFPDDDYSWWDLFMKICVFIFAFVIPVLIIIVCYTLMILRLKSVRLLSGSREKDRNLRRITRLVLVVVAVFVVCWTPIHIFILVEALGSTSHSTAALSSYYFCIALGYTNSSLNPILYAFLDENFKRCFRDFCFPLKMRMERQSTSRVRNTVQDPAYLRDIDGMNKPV
T3 sequence (P41146 whole entry): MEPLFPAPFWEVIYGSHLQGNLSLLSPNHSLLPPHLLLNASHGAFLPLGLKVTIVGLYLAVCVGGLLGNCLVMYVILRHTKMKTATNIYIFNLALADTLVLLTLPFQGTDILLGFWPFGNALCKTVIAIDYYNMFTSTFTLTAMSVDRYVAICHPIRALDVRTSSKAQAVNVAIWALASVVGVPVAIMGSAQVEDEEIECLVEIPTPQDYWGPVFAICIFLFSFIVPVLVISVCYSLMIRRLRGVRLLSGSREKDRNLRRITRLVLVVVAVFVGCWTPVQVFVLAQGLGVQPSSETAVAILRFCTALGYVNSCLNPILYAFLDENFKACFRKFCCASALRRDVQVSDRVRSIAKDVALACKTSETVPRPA
h5-HT2B, sequence (P41595 whole entry): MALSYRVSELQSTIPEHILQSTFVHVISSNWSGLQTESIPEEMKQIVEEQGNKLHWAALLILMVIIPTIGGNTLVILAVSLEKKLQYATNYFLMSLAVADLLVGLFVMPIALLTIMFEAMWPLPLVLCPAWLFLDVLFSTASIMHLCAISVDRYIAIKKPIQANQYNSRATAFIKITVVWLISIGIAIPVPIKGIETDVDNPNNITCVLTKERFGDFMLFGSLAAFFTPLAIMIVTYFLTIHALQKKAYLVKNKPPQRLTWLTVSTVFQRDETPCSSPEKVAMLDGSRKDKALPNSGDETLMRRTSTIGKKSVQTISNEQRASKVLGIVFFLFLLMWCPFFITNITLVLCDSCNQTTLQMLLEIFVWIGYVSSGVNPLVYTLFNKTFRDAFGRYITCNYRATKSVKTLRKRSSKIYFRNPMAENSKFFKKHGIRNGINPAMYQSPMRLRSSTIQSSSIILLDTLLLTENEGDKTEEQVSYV
hMOR, sequence (P35372 whole entry): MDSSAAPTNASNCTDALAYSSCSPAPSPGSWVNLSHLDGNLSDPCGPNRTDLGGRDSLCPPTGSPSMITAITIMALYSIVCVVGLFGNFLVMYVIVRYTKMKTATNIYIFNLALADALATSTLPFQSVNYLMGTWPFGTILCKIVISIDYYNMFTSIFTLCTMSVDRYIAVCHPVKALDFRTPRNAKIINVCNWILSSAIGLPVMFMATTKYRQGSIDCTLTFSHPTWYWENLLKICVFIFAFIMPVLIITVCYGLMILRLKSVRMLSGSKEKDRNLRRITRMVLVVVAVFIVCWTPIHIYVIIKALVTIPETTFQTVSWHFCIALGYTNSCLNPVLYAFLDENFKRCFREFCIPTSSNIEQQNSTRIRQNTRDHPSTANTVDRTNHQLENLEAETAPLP
T4 sequence (Q12809 whole entry): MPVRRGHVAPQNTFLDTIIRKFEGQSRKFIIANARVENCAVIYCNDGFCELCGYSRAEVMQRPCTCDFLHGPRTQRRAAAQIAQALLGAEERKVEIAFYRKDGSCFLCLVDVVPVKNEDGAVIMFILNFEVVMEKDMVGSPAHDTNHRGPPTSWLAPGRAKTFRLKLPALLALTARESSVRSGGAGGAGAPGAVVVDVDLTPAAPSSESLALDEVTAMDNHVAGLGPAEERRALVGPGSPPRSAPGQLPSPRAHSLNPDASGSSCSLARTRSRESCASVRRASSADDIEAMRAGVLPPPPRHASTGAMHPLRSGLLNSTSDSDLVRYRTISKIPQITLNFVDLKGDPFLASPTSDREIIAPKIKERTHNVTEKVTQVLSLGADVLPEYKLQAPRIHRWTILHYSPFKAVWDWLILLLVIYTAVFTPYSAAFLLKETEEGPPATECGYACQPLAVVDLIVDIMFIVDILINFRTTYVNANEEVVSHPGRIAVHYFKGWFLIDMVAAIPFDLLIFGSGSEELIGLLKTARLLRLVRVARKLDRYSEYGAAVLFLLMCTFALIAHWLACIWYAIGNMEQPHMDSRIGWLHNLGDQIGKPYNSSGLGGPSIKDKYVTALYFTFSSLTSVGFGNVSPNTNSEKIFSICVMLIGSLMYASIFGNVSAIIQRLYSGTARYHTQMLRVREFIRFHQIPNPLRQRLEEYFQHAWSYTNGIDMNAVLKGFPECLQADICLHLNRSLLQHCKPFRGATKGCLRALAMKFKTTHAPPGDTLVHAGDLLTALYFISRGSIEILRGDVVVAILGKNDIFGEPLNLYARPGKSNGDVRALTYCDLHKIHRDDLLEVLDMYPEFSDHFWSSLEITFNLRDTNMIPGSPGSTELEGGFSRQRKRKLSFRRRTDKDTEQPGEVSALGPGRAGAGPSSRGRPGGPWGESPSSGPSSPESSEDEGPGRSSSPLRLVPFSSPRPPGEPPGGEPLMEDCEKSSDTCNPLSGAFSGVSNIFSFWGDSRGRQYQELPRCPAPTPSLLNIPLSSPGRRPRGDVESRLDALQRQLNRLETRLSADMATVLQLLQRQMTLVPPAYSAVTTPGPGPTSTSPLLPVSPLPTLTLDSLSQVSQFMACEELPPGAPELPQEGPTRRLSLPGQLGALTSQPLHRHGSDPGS
h5-HT2A, sequence (P28223 whole entry): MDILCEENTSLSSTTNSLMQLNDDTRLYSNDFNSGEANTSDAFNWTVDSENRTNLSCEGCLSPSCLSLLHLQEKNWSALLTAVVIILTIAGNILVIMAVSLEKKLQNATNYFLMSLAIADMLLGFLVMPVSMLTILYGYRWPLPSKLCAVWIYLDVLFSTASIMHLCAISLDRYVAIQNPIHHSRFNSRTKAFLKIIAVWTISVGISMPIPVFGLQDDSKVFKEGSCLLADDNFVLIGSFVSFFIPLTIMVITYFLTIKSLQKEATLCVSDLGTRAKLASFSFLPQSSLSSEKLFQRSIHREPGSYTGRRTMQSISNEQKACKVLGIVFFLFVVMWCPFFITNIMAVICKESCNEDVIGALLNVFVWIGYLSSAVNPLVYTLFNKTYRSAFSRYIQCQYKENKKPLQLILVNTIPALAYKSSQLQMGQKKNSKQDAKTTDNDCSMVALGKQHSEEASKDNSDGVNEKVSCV

CCC1CC2CC3c4[nH]c5ccc(O)cc5c4CCN(C2)C13 (stereo not drawn) [Noribogaine, Noribogaine hydrochloride]
% Stability (4 h) [1]: 105%
% Unbound ([1]; plasma, pH 7.4): 40.1%
inhibition at 10 µM ([2]; 1.00E-05 M): 10%
inhibition at 1 µM ([2]; 1.00E-06 M): 7%
EC50 [3]: 11.1 µM
Emax [3]: 57%
agonist activity at h5-HT2R [4]: No agonist activity
response, Fig. S5c concentration-response point (replicates) ([5]; M = -4): 0.6832 and -2.533 and 1.849 and 9.706 and 9.178 and 4.549 and -7.153 and 2.312 and 4.8409
response, Fig. S5c concentration-response point (replicates) ([5]; M = -5): 9.7994 and 6.733 and 8.435 and 9.706 and 10.7702 and 15.0341 and 0.9856 and -0.8825 and 4.299
response, Fig. S5c concentration-response point (replicates) ([5]; M = -6): 9.626 and 6.623 and 8.559 and 3.312 and 9.163 and -0.7272 and 9.077 and 6.531 and 9.714
response, Fig. S5c concentration-response point (replicates) ([5]; M = -7): 8.087 and 5.264 and 16.9405 and 8.98 and 10.0186 and 11.1512 and 4.05 and 6.477 and 19.1494
response, Fig. S5c concentration-response point (replicates) ([5]; M = -8): 10.1716 and 9.452 and 9.651 and 4.904 and -0.3201 and 10.6815 and 14.8896 and 2.949 and 7.869
response, Fig. S5c concentration-response point (replicates) ([5]; M = -9): 2.743 and 3.189 and 8.9111 and 2.535 and 1.402 and 3.813 and 4.639 and -0.2876 and 6.5008
response, Fig. S5c concentration-response point (replicates) ([5]; M = -10): 4.986 and 10.7522 and 12.8464 and -2.314 and -2.554 and 4.868 and 5.9 and 1.688 and 15.6928
response, Fig. S5c concentration-response point (replicates) ([5]; M = -11): 8.177 and 6.107 and 7.7052 and 7.712 and 6.632 and -6.719 and 26.9849 and 11.0819 and 18.0666
% effect at 100 µM ([5]; at 100 µM): < 4%
concentration with greater than 20% incidence of arrhythmia-associated events (considerable pro-arrhythmia risk) [6]: ≥ 1000 nM
Alternans % ([6]; 0.1 (µM)): 0%
Contraction Failure % ([6]; 0.1 (µM)): 0%
STV % ([6]; 0.1 (µM)): 0%
After-contraction % ([6]; 0.1 (µM), incidence of cells): 16.67%
pro-arrhythmic potential [6]: pro-arrhythmic potential by causing after-contractions and contraction failures
pro-arrhythmic potential ([6]; listed as noribogaine): concentration-dependent pro-arrhythmia risk
After-contraction % ([6]; 1 (µM)): 33.33%
Alternans % ([6]; 1 (µM)): 0%
Contraction Failure % ([6]; 1 (µM)): 0%
STV % ([6]; 1 (µM)): 0%
After-contraction % ([6]; 3.16 (µM)): 50%
Alternans % ([6]; 3.16 (µM)): 0%
Contraction Failure % ([6]; 3.16 (µM)): 16.67%
STV % ([6]; 3.16 (µM)): 0%
After-contraction % ([6]; 10 (µM)): 50%
Alternans % ([6]; 10 (µM)): 0%
Contraction Failure % ([6]; 10 (µM)): 16.67%
STV % ([6]; 10 (µM)): 0%
Emax [7]: 73%
EC50 ([7]; (95% CI)): 8.33 µM
IC50 [8]: 42 µM
NMDA receptor radioligand displacement, concentration-response point (Fig. S3c) ([8]; 1.00E-04 M): 73
NMDA receptor radioligand displacement, concentration-response point (Fig. S3c) ([8]; 1.00E-05 M): 14
NMDA receptor radioligand displacement, concentration-response point (Fig. S3c) ([8]; 1.00E-06 M): 5
NMDA receptor radioligand displacement, concentration-response point (Fig. S3c) ([8]; 2.15E-05 M): 32
NMDA receptor radioligand displacement, concentration-response point (Fig. S3c) ([8]; 4.64E-05 M): 53
IC50 ([8]; [3H]MK-801 displacement, n = 1): 42.2 µM
response, Fig. S5b concentration-response point (replicates) ([9]; M = -4): 63.4148 and 52.568 and 43.4303 and -3.268 and 15.5992 and -3.578 and 46.3729 and 68.2306 and 65.5059
response, Fig. S5b concentration-response point (replicates) ([9]; M = -5): 44.129 and 7.591 and 58.3969 and -7.944 and -3.52 and -16.5221 and 8.861 and 66.0772 and 47.0286
response, Fig. S5b concentration-response point (replicates) ([9]; M = -6): 20.3519 and 3.61 and -1.914 and -21.4522 and 4.635 and -8.327 and 2.307 and 50.686 and 6.38
response, Fig. S5b concentration-response point (replicates) ([9]; M = -7): -3.613 and 22.2417 and 10.4815 and -11.7203 and -7.426 and -8.634 and -0.3969 and 6.635 and -33.8028
response, Fig. S5b concentration-response point (replicates) ([9]; M = -8): -6.02 and -4.0285 and -3.934 and -14.0445 and 2.721 and -12.2464 and 2.029 and -16.111 and -2.683
response, Fig. S5b concentration-response point (replicates) ([9]; M = -9): 5.431 and -20.2939 and -8.392 and 0.6992 and -6.586 and -12.3198 and -2.633 and 36.0973 and 2.925
response, Fig. S5b concentration-response point (replicates) ([9]; M = -10): 4.023 and 14.614 and -14.1911 and -26.8111 and -11.2252 and 12.0579 and -0.5811 and 6.156 and 9.5717
response, Fig. S5b concentration-response point (replicates) ([9]; M = -11): -10.3398 and -7.2943 and -10.3521 and -20.7885 and 4.252 and -10.5358 and -2.026 and -5.486 and -20.474
Emax ([9]; normalized to Emax of U-50,488): 46%
recovery at 4 h, 5 µM [10]: 75%
fraction unbound ([10]; plasma): 0.401
QT prolongation [11]: > 500 ms
% effect at 100 µM [12]: < 3%
% displacement at 10 µM ([13]; at 10 µM, n = 1): < 0%
binding affinity for nociceptin receptor (ORL-1/NOP) ([13]; up to 10 µM): No binding affinity
Ki [14]: 2 µM
estimated free plasma noribogaine Cmax ([15]; 60 mg oral dose, mild QT effect): approximately 100 nM
estimated free plasma noribogaine Cmax ([15]; 180 mg oral dose): 300 to 400 nM
suppression of responding maintained by food on day 1 [16]: > 80%
